Common to all, as to assay: ≥ marks a high value that may be exact or a test limit, other limits are often not marked, values filed in µg/mL are converted to µM
Assay [1] deals with Staphylococcus aureus ATCC 29231.
Assay [2] concerns Candida albicans ATCC 10231.
Assay [3] concerns Staphylococcus aureus MW2.
Assay [4] relates to Klebsiella aerogenes ATCC 13048.
For assay [5], the system named is Psychrobacter faecalis X29.
Assay [6] has as its system Bacillus licheniformis X39.
Assay [7] deals with Staphylococcus carnosus KHS.
In assay [8] the test system is Rhodococcus rhodochrous X15.
For assay [9], the system named is Staphylococcus aureus ATCC 2592.
For assay [10], the system named is Candida albicans IHEM 8060.
The test system of assay [11] is Candida glabrata.
Assay [12] concerns Bacillus subtilis IFO 3336.
Assay [13] concerns Escherichia coli IFO 3301.
Assay [14] concerns Escherichia coli O157:H7.
Assay [15] concerns Staphylococcus aureus 1056.
Assay [16] concerns Acinetobacter baumannii.
Assay [17] has as its system Salmonella enterica subsp. enterica serovar Typhimurium ATCC 13311.
Assay [18] concerns Staphylococcus epidermidis ATCC 12228.
In assay [19] the test system is Pseudomonas aeruginosa.
The subject of assay [20] is Shigella sonnei ATCC 11060.
The test system of assay [21] is Vibrio cholerae O1 Inaba.
For assay [22], the system named is Staphylococcus aureus ATCC 25923.
Assay [23] relates to Listeria monocytogenes 10403s.
Assay [24] has as its system Enterococcus faecalis ATCC 29212.
Assay [25] relates to Bacillus cereus ATCC 11778.
In assay [26] the test system is Escherichia coli ATCC 25922.
Assay [27] deals with Pseudomonas aeruginosa 1.

In brackets after ≈: the same amount, converted by molar mass. A value given as a limit tells only on which side of the number the result lay.

In general, MIC refers to the least concentration at which growth counts as inhibited. Higher therefore signals weaker potency.

`CC[C@H](C)[C@H](NC(=O)[C@H](CCCCN)NC(=O)[C@H](CCCCN)NC(=O)[C@H](CC(C)C)NC(=O)[C@@H](NC(=O)[C@H](CCCCN)NC(=O)[C@H](Cc1c[nH]c2ccccc12)NC(=O)[C@@H](N)CC(C)C)[C@@H](C)CC)C(=O)N[C@@H](Cc1c[nH]c2ccccc12)C(=O)N[C@@H](CCCN=C(N)N)C(=O)N[C@H](C(=O)NCC(=O)N[C@@H](Cc1c[nH]c2ccccc12)C(=O)N[C@@H](CC(N)=O)C(=O)N[C@@H](Cc1c[nH]c2ccccc12)C(=O)N[C@@H](CCCN=C(N)N)C(=O)O)C(C)C` [LWKILKKIWRVGWNWR]: the MIC is 7.33 µM (≈ 16 µg/mL) in assay [1], 29.3 µM (≈ 64 µg/mL) in [2], 14.7 µM (≈ 32 µg/mL) in assay [3] and not below 58.6 µM in assay [4].

Take `CC[C@H](C)[C@@H]1NC(=O)[C@H](CCCCN)NC(=O)[C@@H](NC(=O)[C@H](Cc2ccccc2)NC(=O)[C@H](CC(C)C)NC(=O)[C@@H](NC(=O)[C@@H]2CCCN2C(=O)[C@@H](NC(=O)[C@@H](NC(=O)[C@H](CCCCN)NC(=O)CNC(=O)[C@@H](NC(=O)[C@H](CC(C)C)NC(=O)CNC(=O)[C@H](CC(C)C)NC(=O)[C@H](CC(C)C)NC(=O)[C@H](CO)NC(=O)CNC(=O)[C@H](CC(C)C)NC(=O)[C@@H](N)Cc2ccccc2)C(C)C)C(C)C)C(C)C)[C@@H](C)O)CSSC[C@@H](C(=O)O)NC(=O)[C@H](CCCCN)NC(=O)[C@H](CCCCN)NC(=O)[C@H](CO)NC1=O` [FLGSLLGLVGKVVPTLFCKISKKC]: the MIC worked out at 4.9 µM (≈ 12.5 µg/mL) in assay [5]; 9.8 µM (≈ 25 µg/mL) in [6]; 4.9 µM (≈ 12.5 µg/mL) in [7]; 1.22 µM (≈ 3.1 µg/mL) in [8]; 1.22 µM (≈ 3.1 µg/mL) in assay [9].

Take `CC[C@H](C)[C@@H]1NC(=O)[C@@H](N)CSSC[C@@H]2NC(=O)[C@@H]3CSSC[C@@H](C(=O)N[C@@H](CCCN=C(N)N)C(=O)O)NC(=O)[C@H](Cc4ccc(O)cc4)NC(=O)CNC(=O)[C@H](C)NC(=O)[C@H](C(C)C)NC(=O)[C@H](Cc4c[nH]c5ccccc45)NC(=O)CNC(=O)[C@@H]4CCCN4C(=O)[C@H](CCC(=O)O)NC(=O)[C@H](CCCCN)NC(=O)[C@H](Cc4cnc[nH]4)NC(=O)[C@H](CSSC[C@H](NC(=O)CNC(=O)[C@H](CC(N)=O)NC(=O)CNC(=O)[C@H](CC(N)=O)NC(=O)[C@H](CCCCN)NC1=O)C(=O)N[C@@H](CCC(N)=O)C(=O)N1CCC[C@H]1C(=O)N[C@@H](CC(=O)O)C(=O)NCC(=O)N[C@@H](CO)C(=O)N[C@@H](CCC(N)=O)C(=O)NCC(=O)N[C@@H](CC(N)=O)C(=O)N3)NC(=O)[C@H](Cc1ccc(O)cc1)NC(=O)[C@H](CCCN=C(N)N)NC(=O)[C@H](CO)NC2=O` [CIKNGNGCQPDGSQGNCCSRYCHKEPGWVAGYCR]: the MIC in assay [10] and in assay [11] was 17.3 µM (≈ 63.9 µg/mL) throughout.

Consider `NC(N)=NCCC[C@H](NC(=O)[C@H](CS)NC(=O)[C@H](CCCN=C(N)N)NC(=O)[C@H](CS)NC(=O)[C@H](CCCN=C(N)N)NC(=O)[C@H](CS)NC(=O)[C@H](CCCN=C(N)N)NC(=O)[C@H](CS)NC(=O)[C@@H](N)CCCN=C(N)N)C(=O)N[C@@H](CS)C(=O)O` [RCRCRCRCRC], for which the figures for the MIC in [12] and in assay [13] were 7.61 µM (≈ 10 µg/mL) and 15.2 µM (≈ 20 µg/mL), respectively.

`CC(C)C[C@@H]1NC(=O)[C@H](Cc2cnc[nH]2)NC(=O)[C@H](C)NC(=O)[C@@H]2CCCN2C(=O)[C@@H]2CSSC[C@@H](C(=O)N[C@@H](CCCCN)C(=O)N[C@@H](Cc3c[nH]c4ccccc34)C(=O)N3CCC[C@H]3C(=O)N[C@@H](Cc3c[nH]c4ccccc34)C(=O)N[C@@H](CC(=O)O)C(=O)N[C@H](C(=O)O)C(C)C)NC(=O)[C@@H]3CSSC[C@H](NC(=O)[C@H](Cc4ccccc4)NC(=O)[C@@H](N)CC(C)C)C(=O)N[C@@H](CCCN=C(N)N)C(=O)N[C@@H](CCCCN)C(=O)NCC(=O)N[C@@H]([C@@H](C)O)C(=O)N[C@@H](CSSC[C@H](NC(=O)[C@H](CO)NC(=O)CNC(=O)[C@H](C(C)C)NC(=O)[C@H](CCCCN)NC(=O)[C@H](C(C)C)NC1=O)C(=O)N[C@@H](Cc1ccccc1)C(=O)NCC(=O)N[C@@H](Cc1ccccc1)C(=O)N[C@@H](CCCN=C(N)N)C(=O)N[C@@H](C)C(=O)N3)C(=O)N[C@@H](Cc1cnc[nH]1)C(=O)N[C@@H](Cc1ccccc1)C(=O)NCC(=O)NCC(=O)N2` [LFCRKGTCHFGGCPAHLVKVGSCFGFRACCKWPWDV]: the MIC is 0.321 µM (≈ 1.29 µg/mL) in [14] and 0.291 µM (≈ 1.17 µg/mL) in assay [15].

With `CC[C@H](C)[C@H](NC(=O)[C@H](CCCN=C(N)N)NC(=O)[C@H](CCCCN)NC(=O)[C@H](C)NC(=O)[C@@H](NC(=O)[C@@H](N)CCCCN)[C@@H](C)CC)C(=O)N[C@@H](Cc1c[nH]c2ccccc12)C(=O)N[C@@H](CCCCN)C(=O)N[C@H](C(=O)N[C@@H](CC(C)C)C(=O)N[C@@H](CCCN=C(N)N)C(=O)N[C@@H](CCCN=C(N)N)C(=O)N[C@@H](CCCN=C(N)N)C(N)=O)[C@@H](C)CC` [KIAKRIWKILRRR], the MIC came out at 4.5 µM (≈ 7.81 µg/mL) in assay [16]; 1.12 µM (≈ 1.95 µg/mL) in assay [17]; 2.25 µM (≈ 3.91 µg/mL) in assay [18]; 4.5 µM (≈ 7.81 µg/mL) in assay [19]; 2.25 µM (≈ 3.91 µg/mL) in assay [20]; 18 µM (≈ 31.2 µg/mL) in assay [14]. The MIC in [21] is 18 µM (≈ 31.2 µg/mL); in assay [22], 36 µM (≈ 62.5 µg/mL); in [23], 2.25 µM (≈ 3.91 µg/mL); in [24], 144 µM (≈ 250 µg/mL); in assay [25], 9 µM (≈ 15.6 µg/mL); in assay [26], 18 µM (≈ 31.2 µg/mL). This molecule also had an MIC in assay [27] of 2.25 µM (≈ 3.91 µg/mL).

The values are drawn from DBAASP.
